Test results from ChEMBL document CHEMBL1201862, “PubChem BioAssay data set” (2004).
The source made the active and inactive calls.

Legend:
[1] = inhibitors of intracellular T. cruzi replication, confirmation, NIH3T3 host cells, beta-gal luminescence (AID 2044); format: functional, cell-based;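 also: intracellular parasites grown in NIH/3T3 mouse fibroblasts as host cells; luminescent beta-galactosidase reporter signal from transgenic T. cruzi replicating inside host cells; inhibitors lower the luminescence signal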
Escherichia coli [2] = test: microbe, parasite or virus in culture
[3] = cytotoxicity toward NIH3T3 fibroblasts, dose response, counter-screen, cell-based, ATP luminescence, mouse fibroblasts (AID 2010); format: functional;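 also: cells exposed to compound for about 90 hours before reading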
Escherichia coli [4] = test: microbe, parasite or virus in culture; remark: listed apart in the source
Vero = test: cells; format: functional, cell-based; conditions: Chlorocebus sabaeus
[5] = biological target: T1, Rac GTPase-activating protein 1 (Homo sapiens, UniProt Q9H0H5); test: MgcRacGAP GTPase-activating activity inhibitors, confirmation, biochemical, ADP Hunter fluorescence, primary and confirmatory (AID 624330); format: functional
T1 sequence (Q9H0H5 whole entry): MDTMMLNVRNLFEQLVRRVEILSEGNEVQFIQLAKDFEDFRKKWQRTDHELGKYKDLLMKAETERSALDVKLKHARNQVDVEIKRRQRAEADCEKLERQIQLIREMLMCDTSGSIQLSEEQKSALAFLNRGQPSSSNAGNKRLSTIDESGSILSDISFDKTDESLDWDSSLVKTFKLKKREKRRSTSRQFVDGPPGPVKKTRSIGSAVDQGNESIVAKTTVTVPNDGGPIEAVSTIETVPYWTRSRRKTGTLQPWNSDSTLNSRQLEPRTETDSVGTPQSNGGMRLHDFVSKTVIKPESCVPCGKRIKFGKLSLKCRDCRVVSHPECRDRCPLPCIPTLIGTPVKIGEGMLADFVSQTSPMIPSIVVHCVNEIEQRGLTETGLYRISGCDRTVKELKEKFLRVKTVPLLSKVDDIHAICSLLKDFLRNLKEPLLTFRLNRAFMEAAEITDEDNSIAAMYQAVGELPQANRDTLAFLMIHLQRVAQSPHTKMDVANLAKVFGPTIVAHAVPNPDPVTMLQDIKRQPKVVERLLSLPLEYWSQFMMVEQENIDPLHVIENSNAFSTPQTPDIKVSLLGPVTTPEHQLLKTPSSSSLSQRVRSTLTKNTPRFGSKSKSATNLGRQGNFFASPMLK

[6] = biological target: Dual specificity tyrosine-phosphorylation-regulated kinase 1A (Rattus norvegicus, UniProt Q63470); format: biochemical, Homo sapiens
Large T antigen = Large T antigen (Simian virus 40, UniProt P03070); format: functional, Betapolyomavirus macacae;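 also: Confirmatory-stage PubChem screen for compounds that inhibit SV40 T antigen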
Chain of Large T antigen (P03070 whole entry): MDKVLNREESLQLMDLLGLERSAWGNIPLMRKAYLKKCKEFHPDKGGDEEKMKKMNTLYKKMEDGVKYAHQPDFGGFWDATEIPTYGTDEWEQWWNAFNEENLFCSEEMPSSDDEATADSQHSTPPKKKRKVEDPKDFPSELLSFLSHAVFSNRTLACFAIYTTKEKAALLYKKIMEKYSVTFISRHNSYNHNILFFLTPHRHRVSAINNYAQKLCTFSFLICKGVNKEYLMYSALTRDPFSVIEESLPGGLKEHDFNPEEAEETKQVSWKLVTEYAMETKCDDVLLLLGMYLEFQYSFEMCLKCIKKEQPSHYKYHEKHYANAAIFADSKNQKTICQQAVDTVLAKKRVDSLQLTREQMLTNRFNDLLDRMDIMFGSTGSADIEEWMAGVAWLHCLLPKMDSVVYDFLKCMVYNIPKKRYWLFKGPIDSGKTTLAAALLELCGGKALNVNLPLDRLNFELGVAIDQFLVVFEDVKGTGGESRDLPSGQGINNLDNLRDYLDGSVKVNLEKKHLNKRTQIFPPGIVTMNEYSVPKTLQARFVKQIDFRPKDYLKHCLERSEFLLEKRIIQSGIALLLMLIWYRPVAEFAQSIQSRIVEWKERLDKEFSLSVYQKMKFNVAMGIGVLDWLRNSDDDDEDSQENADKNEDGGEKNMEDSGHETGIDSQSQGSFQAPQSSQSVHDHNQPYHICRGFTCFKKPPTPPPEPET

**Q.** Which results are given for O=[N+]([O-])c1ccc(-c2cc[nH]n2)o1?
**A.** EC50 [1]: 0.202 µM (active); AC50 (Escherichia coli [2]): 12.5 µM (active); EC50 [3]: > 60 µM (not active); AC50 (Escherichia coli [4]): 24 µM (active)

**Q.** For Cc1ccc(S(=O)(=O)N2C[C@@H](C)[C@]3(C2)[C@H](O)[C@H](OC(=O)Nc2cccs2)C[C@H]2C(=O)N(c4ccccc4)C(=O)[C@H]23)cc1, which IC50 (Vero) is on record?
**A.** Its IC50 is 22.1 µM (active).

**Q.** Which results are given for C=CCSC1=NC(=O)/C(=C/c2cccs2)S1?
**A.** IC50 [5]: 29.7 µM (active); AC50 [6]: 8.3 µM (active); IC50 (Large T antigen): 40.8 µM (active)
